Read-outs that look alike come from different tables or passages of the source. Blank lines part the entries; values can stand above or below the compound they belong to.
How the values were obtained:
[1] = test system: human bronchial epithelial cells; set-up: method as in PMID 15231488; conditions: ex vivo; cited from earlier work
[2] = test system: panel of 37 other receptors; set-up: method as in PMID 15231488; conditions: 10 μM; cited from earlier work
NLuc-P2Y2R [3] = target: T1, NLuc-P2Y2R (Homo sapiens, UniProt P41231); test: Calcium signal of NLuc-tagged P2Y2 receptors in 1321N1 cells; type: cell-based; conditions: n = 3, read-out: UTPγS EC50 (calcium signal)
T1 construct: expressed in transfected cells
Protocol: To create the NLuc-P2Y2R constructs, human P2Y2R DNA (obtained from the Missouri S&T cDNA Resource Center) was amplified by PCR to remove the methionine start signal and cloned into pCR2.1 (linearized vector, Invitrogen). P2Y2R was then subcloned in-frame with the membrane-signal sequence of the 5HT3A receptor and the full-length sequence of nanoluciferase.
P2Y2-1321N1 cells seeded into black-sided 96-well view plates were incubated at 37 °C without CO2 for 45 min in a total volume of 100 μL of a HEPES-buffered saline solution (HBSS; 10 mM HEPES, 10 mM glucose, 145 mM NaCl, 5 mM KCl, 1 mM MgSO4, 2 mM sodium pyruvate, and 1.3 mM CaCl2) containing 2.5 mM probenecid, 2.3 μM Fluo 4AM, 0.023% pluronic acid, 0.5 mM Brilliant Black, 1 U/mL apyrase, and the ligand under investigation or the vehicle. The plates were then loaded onto a plate reader (FLEXstation, Molecular Devices), and the fluorescence was measured (excitation: 485 nm, emission: 525 nm) every 1.52 s for up to 200 s after the addition of UTPγS at 15 s. For the investigation of the BODIPYFL-labeled ligands, Fluo 4AM was replaced with 2.0 μM X-Rhod-1 AM (excitation: 584 nm, emission: 612 nm).

NLuc-P2Y2R [4] = target: T1, NLuc-P2Y2R; test: NanoBRET competition binding in NLuc-P2Y2 1321N1 cells; conditions: Table 7, competition binding with fluorescent ligand 98, mean ± SEM
hP2Y2R = target: T2, hP2Y2R (Homo sapiens, UniProt P41231); test: Calcium-mobilization assay in P2Y2-1321N1 cells (antagonism of UTPγS); type: cell-based; conditions: for Kb: Gaddum equation
T2 construct: The 1321N1 cells expressing wild-type P2Y2R (P2Y2R-1321N1) were gifted by Dr. Elizabeth Rosethorne; expressed in transfected cells; host or cells: 1321N1 astrocytoma cells (P2Y2R-1321N1), gifted

hP2Y2 = test system: hP2Y2; set-up: method as in PMID 28958619; conditions: cited from earlier work
[5] = Table 7, shift of agonist dose–response curve by a single antagonist concentration, mean ± SEM, read-out: pKb Ca2+ mobilization (converted)

T2 sequence (P41231 whole entry): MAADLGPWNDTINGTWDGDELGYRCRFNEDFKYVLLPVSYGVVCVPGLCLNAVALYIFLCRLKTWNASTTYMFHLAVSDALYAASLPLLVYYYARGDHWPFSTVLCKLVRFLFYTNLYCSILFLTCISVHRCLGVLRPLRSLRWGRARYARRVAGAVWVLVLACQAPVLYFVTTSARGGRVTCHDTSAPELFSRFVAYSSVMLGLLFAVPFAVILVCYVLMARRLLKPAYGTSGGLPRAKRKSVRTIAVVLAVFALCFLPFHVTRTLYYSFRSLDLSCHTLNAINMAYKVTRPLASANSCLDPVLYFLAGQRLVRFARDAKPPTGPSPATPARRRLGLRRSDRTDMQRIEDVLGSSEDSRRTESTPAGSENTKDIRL
T1 sequence (P41231 2-377 limits assumed): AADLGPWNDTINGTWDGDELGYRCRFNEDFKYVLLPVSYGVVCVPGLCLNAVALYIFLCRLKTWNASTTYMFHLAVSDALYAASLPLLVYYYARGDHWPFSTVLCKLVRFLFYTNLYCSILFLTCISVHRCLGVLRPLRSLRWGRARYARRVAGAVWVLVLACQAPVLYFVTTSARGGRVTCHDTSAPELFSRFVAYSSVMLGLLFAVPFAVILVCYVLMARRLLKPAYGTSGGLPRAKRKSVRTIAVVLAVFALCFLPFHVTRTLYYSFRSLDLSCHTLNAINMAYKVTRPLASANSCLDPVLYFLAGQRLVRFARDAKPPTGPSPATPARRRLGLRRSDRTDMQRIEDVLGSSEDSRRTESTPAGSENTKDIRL

Ki (NLuc-P2Y2R [4]; read-out: pKi NanoBRET (98) (converted)): 145 nM
Kb (hP2Y2R; [5]): 295 nM
Kd (hP2Y2R; quoted in text for nonfluorescent antagonists, mean ± SEM, read-out: hP2Y2R affinity pKd (converted)): 295 nM
SMILES: Cc1ccc2c(c1)C=Cc1cc(C)ccc1C2c1cn(Cc2cc(C(=O)O)cc(C(=O)O)c2)c(=O)[nH]c1=S [Example 60, 5-((5-(2,8-Dimethyl-5H-dibenzo[a,d][7]annulen-5-yl)-2-oxo-4-thioxo-3,4-dihydropyrimidin-1(2H)-yl)methyl)isophthalic Acid]

Kb (hP2Y2R; [5]): 257 nM
SMILES: O=c1[nH]c(=S)c(C2c3ccccc3CCc3ccccc32)cn1[C@@H]1O[C@H](COP(=O)([O-])OP(=O)([O-])C(Cl)(Cl)P(=O)([O-])[O-])[C@@H](O)[C@H]1O.[Na+].[Na+].[Na+].[Na+] [Example 99, reference compound]
pA2 (literature/reported value) (hP2Y2): d Reported pA2 = 8.0.[8]

More lines, now with the values behind:

SMILES: Cc1ccc2c(c1)C=Cc1cc(C)ccc1C2c1cn(Cc2ccc(C(=O)Nc3nnn[nH]3)o2)c(=O)[nH]c1=S [Example 1]
antagonism of ATPγS-induced mucin secretion [1]: concentration-dependently antagonize
activity against a panel of 37 other receptors [2]: inactive

SMILES: O=c1ccn([C@@H]2O[C@H](COP(=O)(O)OP(=O)(O)OP(O)(O)=S)[C@@H](O)[C@H]2O)c(=O)[nH]1 [UTPγS, uridine-5′-(γ-thio)-triphosphate, reference compound]
EC50 (NLuc-P2Y2R [3]): 91 ± 12 nM
pKi NanoBRET (98) (NLuc-P2Y2R [4]): 5.46 ± 0.04 (6)
EC50 (hP2Y2R; agonist, calcium mobilization, n = 25): 7.9 nM

SMILES: Cc1ccc2c(c1)C=Cc1cc(C)ccc1C2c1cn(Cc2nc(C(=O)O)cs2)c(=O)[nH]c1=S [Example 2, 2-((5-(2,8-dimethyl-5H-dibenzo[a,d][7]annulen-5-yl)-2-oxo-4-thioxo-3,4-dihydropyrimidin-1(2H)-yl)methyl)thiazole-4-carboxylic acid]
pA2 (literature/reported value) (hP2Y2): c The literature value is pA2 = 5.7.[8]
Kb (hP2Y2R; Table 1, shift of UTPγS concentration–response curve by a single antagonist concentration, mean ± SEM, read-out: hP2Y2 pKb (converted)): 372 nM
